Data on twelve compounds can be found in patent publication US20250163104A1, “MACROCYCLIC IMMUNOMODULATORS” (priority 2021, published 2025).

Where a SMILES comes first, the peptide text is derived from it. Bridges are numbered along the chain shown (N, C = ends). [ ]: non-standard residue; d: D form. The star is where a group is joined. ξ: configuration not given here. Phe(4-COOH) = N[C@@H](Cc1ccc(C(=O)O)cc1)C(=O)O; Bip = N[C@@H](Cc1ccc(-c2ccccc2)cc1)C(=O)O; Phe(3-Me) = Cc1cccc(C[C@H](N)C(=O)O)c1; Val(3-OH) = CC(C)(O)[C@H](N)C(=O)O; 4Pal = N[C@@H](Cc1ccncc1)C(=O)O; Cha = N[C@@H](CC1CCCCC1)C(=O)O; Ile(3ξ) = CCC(C)[C@H](N)C(=O)O; Carboxymethyl = O=C(O)C*; Orn = NCCC[C@H](N)C(=O)O; Pra = C#CC[C@H](N)C(=O)O; Dab = NCC[C@H](N)C(=O)O; Dap = NC[C@H](N)C(=O)O

For this assay, the target named is T1, human PD-1 / PD-L1-Ig binding on Jurkat cell line over-expressing human PD-1 (Jurkat-PD-1) (Homo sapiens, UniProt Q15116).
T1 construct: expressed in transfected cells; host or cells: Jurkat
T1 sequence (Q15116 25-288): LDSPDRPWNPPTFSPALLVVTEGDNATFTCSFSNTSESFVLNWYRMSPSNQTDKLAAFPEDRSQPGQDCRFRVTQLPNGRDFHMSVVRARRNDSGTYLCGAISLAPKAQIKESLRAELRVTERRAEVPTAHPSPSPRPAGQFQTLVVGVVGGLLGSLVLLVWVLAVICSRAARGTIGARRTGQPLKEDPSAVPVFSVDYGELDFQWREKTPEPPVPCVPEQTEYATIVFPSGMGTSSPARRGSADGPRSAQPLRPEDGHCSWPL
Description: Jurkat-PD-1 Cell Binding High-Content Screening Assay (CBA). It counts as cell-based. As to conditions: Jurkat-PD-1 cells, PE-labeled PD-L1-Ig 20 nM final; read-out: Jurkat HPD1_PDL1 IC50. The method in brief:
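Compounds were preincubated with Jurkat-hPD-1 cells in DMEM plus 10% fetal calf serum for 2 h at 37° C. Phycoerythrin-labeled PD-L1-Ig (20 nM final) was then added for 1 hour. Cells were fixed in 4% paraformaldehyde with Hoechst 33342, and bound fluorescence was quantified by high-content imaging.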
For `Cc1cccc(C[C@@H]2NC(=O)[C@H](CC(=O)O)NC(=O)[C@H](Cc3ccc(C(=O)O)cc3)NC(=O)[C@H](Cc3ccncc3)NC(=O)CSC[C@@H](C(=O)N[C@@H](CCN)C(N)=O)NC(=O)[C@H](CO)NC(=O)[C@H](C(C)C)NC(=O)[C@H](CC3CCCCC3)NC(=O)[C@H](CCN)NC(=O)[C@@H](CC(C)C)NC(=O)[C@H](CCCN)NC(=O)[C@H](Cc3ccc(OCC(=O)O)cc3)NC(=O)[C@H](Cc3ccc(-c4ccccc4)cc3)NC(=O)[C@H](Cc3ccc(OCC(=O)O)cc3)NC2=O)c1` [Compound 2307] ({CH2CO}-[4Pal][Phe(4-COOH)]D[Phe(3-Me)]Y(Carboxymethyl)[Bip]Y(Carboxymethyl)[Orn][dL][Dab][Cha]VSC[Dab]-NH2; thioether N-14), the concentration for half-maximal inhibition (IC50) was 12.1 nM.
The value for `Cc1cccc(C[C@@H]2NC(=O)[C@H](CC(=O)O)NC(=O)[C@H](Cc3ccc(C(=O)O)cc3)NC(=O)[C@H](Cc3ccncc3)NC(=O)CSC[C@@H](C(=O)N[C@@H](CCN)C(N)=O)NC(=O)[C@H](CCC(=O)O)NC(=O)[C@H](C(C)C)NC(=O)[C@H](CC3CCCCC3)NC(=O)[C@H](CCN)NC(=O)[C@@H](CC(C)C)NC(=O)[C@H](CCCN)NC(=O)[C@H](Cc3ccc(OCC(=O)O)cc3)NC(=O)[C@H](Cc3ccc(-c4ccccc4)cc3)NC(=O)[C@H](Cc3ccc(OCC(=O)O)cc3)NC2=O)c1` [Compound 2308] ({CH2CO}-[4Pal][Phe(4-COOH)]D[Phe(3-Me)]Y(Carboxymethyl)[Bip]Y(Carboxymethyl)[Orn][dL][Dab][Cha]VEC[Dab]-NH2; thioether N-14) was 7.5 nM.
On to `Cc1cccc(C[C@@H]2NC(=O)[C@H](CC(=O)O)NC(=O)[C@H](Cc3ccc(C(=O)O)cc3)NC(=O)[C@H](Cc3ccncc3)NC(=O)CSC[C@@H](C(=O)N[C@@H](CCN)C(N)=O)NC(=O)[C@H](CCC(N)=O)NC(=O)[C@H](C(C)C)NC(=O)[C@H](CC3CCCCC3)NC(=O)[C@H](CCN)NC(=O)[C@@H](CC(C)C)NC(=O)[C@H](CCCN)NC(=O)[C@H](Cc3ccc(OCC(=O)O)cc3)NC(=O)[C@H](Cc3ccc(-c4ccccc4)cc3)NC(=O)[C@H](Cc3ccc(OCC(=O)O)cc3)NC2=O)c1` [Compound 2309] ({CH2CO}-[4Pal][Phe(4-COOH)]D[Phe(3-Me)]Y(Carboxymethyl)[Bip]Y(Carboxymethyl)[Orn][dL][Dab][Cha]VQC[Dab]-NH2; thioether N-14), for which the half-inhibitory concentration (IC50) was found to be 5.9 nM.
Turning to `Cc1cccc(C[C@@H]2NC(=O)[C@H](CC(=O)O)NC(=O)[C@H](Cc3ccc(C(=O)O)cc3)NC(=O)[C@H](Cc3ccncc3)NC(=O)CSC[C@@H](C(=O)N[C@@H](CO)C(N)=O)NC(=O)[C@H]([C@@H](C)O)NC(=O)[C@H](C(C)C)NC(=O)[C@H](CC3CCCCC3)NC(=O)[C@H](CCN)NC(=O)[C@@H](CC(C)C)NC(=O)[C@H](CCCN)NC(=O)[C@H](Cc3ccc(OCC(=O)O)cc3)NC(=O)[C@H](Cc3ccc(-c4ccccc4)cc3)NC(=O)[C@H](Cc3ccc(OCC(=O)O)cc3)NC2=O)c1` [Compound 2310] ({CH2CO}-[4Pal][Phe(4-COOH)]D[Phe(3-Me)]Y(Carboxymethyl)[Bip]Y(Carboxymethyl)[Orn][dL][Dab][Cha]VTCS-NH2; thioether N-14), the half-maximal inhibitory concentration (IC50) was determined as 7.6 nM.
The value for `Cc1cccc(C[C@@H]2NC(=O)[C@H](CC(=O)O)NC(=O)[C@H](Cc3ccc(C(=O)O)cc3)NC(=O)[C@H](Cc3ccncc3)NC(=O)CSC[C@@H](C(=O)N[C@@H](CO)C(N)=O)NC(=O)[C@H](CCC(=O)O)NC(=O)[C@H](C(C)C)NC(=O)[C@H](CC3CCCCC3)NC(=O)[C@H](CCN)NC(=O)[C@@H](CC(C)C)NC(=O)[C@H](CCCN)NC(=O)[C@H](Cc3ccc(OCC(=O)O)cc3)NC(=O)[C@H](Cc3ccc(-c4ccccc4)cc3)NC(=O)[C@H](Cc3ccc(OCC(=O)O)cc3)NC2=O)c1` [Compound 2311] ({CH2CO}-[4Pal][Phe(4-COOH)]D[Phe(3-Me)]Y(Carboxymethyl)[Bip]Y(Carboxymethyl)[Orn][dL][Dab][Cha]VECS-NH2; thioether N-14) was 11.7 nM; that for `Cc1cccc(C[C@@H]2NC(=O)[C@H](CC(=O)O)NC(=O)[C@H](Cc3ccc(C(=O)O)cc3)NC(=O)[C@H](Cc3ccncc3)NC(=O)CSC[C@@H](C(=O)N[C@@H](CO)C(N)=O)NC(=O)[C@H](CCC(N)=O)NC(=O)[C@H](C(C)C)NC(=O)[C@H](CC3CCCCC3)NC(=O)[C@H](CCN)NC(=O)[C@@H](CC(C)C)NC(=O)[C@H](CCCN)NC(=O)[C@H](Cc3ccc(OCC(=O)O)cc3)NC(=O)[C@H](Cc3ccc(-c4ccccc4)cc3)NC(=O)[C@H](Cc3ccc(OCC(=O)O)cc3)NC2=O)c1` [Compound 2312] ({CH2CO}-[4Pal][Phe(4-COOH)]D[Phe(3-Me)]Y(Carboxymethyl)[Bip]Y(Carboxymethyl)[Orn][dL][Dab][Cha]VQCS-NH2; thioether N-14) was 7.9 nM; that for `Cc1cccc(C[C@@H]2NC(=O)[C@H](CC(=O)O)NC(=O)[C@H](Cc3ccc(C(=O)O)cc3)NC(=O)[C@H](Cc3ccncc3)NC(=O)CSC[C@@H](C(=O)N[C@H](CC(N)=O)C(N)=O)NC(=O)[C@H](CO)NC(=O)[C@H](C(C)C)NC(=O)[C@H](CC3CCCCC3)NC(=O)[C@H](CCN)NC(=O)[C@@H](CC(C)C)NC(=O)[C@H](CCCN)NC(=O)[C@H](Cc3ccc(OCC(=O)O)cc3)NC(=O)[C@H](Cc3ccc(-c4ccccc4)cc3)NC(=O)[C@H](Cc3ccc(OCC(=O)O)cc3)NC2=O)c1` [Compound 2313] ({CH2CO}-[4Pal][Phe(4-COOH)]D[Phe(3-Me)]Y(Carboxymethyl)[Bip]Y(Carboxymethyl)[Orn][dL][Dab][Cha]VSC[dN]-NH2; thioether N-14) was 13.1 nM.
The value for `Cc1cccc(C[C@@H]2NC(=O)[C@H](CC(=O)O)NC(=O)[C@H](Cc3ccc(C(=O)O)cc3)NC(=O)[C@H](Cc3ccncc3)NC(=O)CSC[C@@H](C(=O)N[C@H](CC(N)=O)C(N)=O)NC(=O)[C@H](CCC(=O)O)NC(=O)[C@H](C(C)C)NC(=O)[C@H](CC3CCCCC3)NC(=O)[C@H](CCN)NC(=O)[C@@H](CC(C)C)NC(=O)[C@H](CCCN)NC(=O)[C@H](Cc3ccc(OCC(=O)O)cc3)NC(=O)[C@H](Cc3ccc(-c4ccccc4)cc3)NC(=O)[C@H](Cc3ccc(OCC(=O)O)cc3)NC2=O)c1` [Compound 2314] ({CH2CO}-[4Pal][Phe(4-COOH)]D[Phe(3-Me)]Y(Carboxymethyl)[Bip]Y(Carboxymethyl)[Orn][dL][Dab][Cha]VEC[dN]-NH2; thioether N-14) was 45.8 nM.
On to `CCC(C)[C@@H]1NC(=O)[C@H](Cc2ccc(-c3ccccc3)cc2)NC(=O)[C@H](Cc2ccc(OCC(=O)O)cc2)NC(=O)[C@H](Cc2cccc(C)c2)NC(=O)[C@H](CC(=O)O)NC(=O)[C@H](Cc2ccc(C(=O)O)cc2)NC(=O)[C@H](Cc2ccncc2)NC(=O)CSC[C@@H](C(=O)N[C@@H](CC(N)=O)C(N)=O)NC(=O)[C@H]([C@@H](C)O)NC(=O)[C@H](C(C)C)NC(=O)[C@H](CC2CCCCC2)NC(=O)[C@H](CCN)NC(=O)[C@@H](CC(C)C)NC(=O)[C@H](CCCN)NC1=O` (stereo partly drawn) [Compound 2315] ({CH2CO}-[4Pal][Phe(4-COOH)]D[Phe(3-Me)]Y(Carboxymethyl)[Bip][Ile(3ξ)][Orn][dL][Dab][Cha]VTCN-NH2; thioether N-14), for which the concentration for half-maximal inhibition (IC50) was determined as 33.1 nM.
The value for `C#CC[C@H](NC(=O)[C@H](CCN)NC(=O)[C@@H]1CSCC(=O)N[C@@H](CN)C(=O)N[C@@H](Cc2ccc(OCC(=O)O)cc2)C(=O)N[C@@H](CC(=O)O)C(=O)N[C@@H](Cc2cccc(C)c2)C(=O)N[C@@H](Cc2ccc(OCC(=O)O)cc2)C(=O)N[C@@H](Cc2ccc(-c3ccccc3)cc2)C(=O)N[C@@H](Cc2ccc(OCC(=O)O)cc2)C(=O)N[C@@H](CCCN)C(=O)N[C@H](CC(C)C)C(=O)N[C@@H](CCN)C(=O)N[C@@H](CC2CCCCC2)C(=O)N[C@@H](C(C)(C)O)C(=O)N[C@@H](CO)C(=O)N1)C(=O)O` [Compound 2316] ({CH2CO}-[Dap]Y(Carboxymethyl)D[Phe(3-Me)]Y(Carboxymethyl)[Bip]Y(Carboxymethyl)[Orn][dL][Dab][Cha][Val(3-OH)]SC[Dab][Pra]-OH; thioether N-14) was 6.5 nM; that for `C#CC[C@H](NC(=O)[C@H](CCN)NC(=O)[C@@H]1CSCC(=O)N[C@@H](Cc2ccncc2)C(=O)N[C@@H](Cc2ccc(OCC(=O)O)cc2)C(=O)N[C@@H](CC(=O)O)C(=O)N[C@@H](Cc2cccc(C)c2)C(=O)N[C@@H](Cc2ccc(OCC(=O)O)cc2)C(=O)N[C@@H](Cc2ccc(-c3ccccc3)cc2)C(=O)N[C@@H](Cc2ccc(OCC(=O)O)cc2)C(=O)N[C@@H](CCCN)C(=O)N[C@H](CC(C)C)C(=O)N[C@@H](CCN)C(=O)N[C@@H](CC2CCCCC2)C(=O)N[C@@H](C(C)(C)O)C(=O)N[C@@H](CO)C(=O)N1)C(=O)O` [Compound 2317] ({CH2CO}-[4Pal]Y(Carboxymethyl)D[Phe(3-Me)]Y(Carboxymethyl)[Bip]Y(Carboxymethyl)[Orn][dL][Dab][Cha][Val(3-OH)]SC[Dab][Pra]-OH; thioether N-14) was 576 nM; that for `C#CC[C@H](NC(=O)[C@H](CCN)NC(=O)[C@@H]1CSCC(=O)N[C@@H](Cc2ccncc2)C(=O)N[C@@H](Cc2ccc(C(=O)O)cc2)C(=O)N[C@@H](CC(=O)O)C(=O)N[C@@H](Cc2cccc(C)c2)C(=O)N[C@@H](Cc2ccc(OCC(=O)O)cc2)C(=O)N[C@@H](Cc2ccc(-c3ccccc3)cc2)C(=O)N[C@@H](Cc2ccc(OCC(=O)O)cc2)C(=O)N[C@@H](CCCN)C(=O)N[C@H](CC(C)C)C(=O)N[C@@H](CCN)C(=O)N[C@@H](CC2CCCCC2)C(=O)N[C@@H](C(C)(C)O)C(=O)N[C@@H](CO)C(=O)N1)C(=O)O` [Compound 2318] ({CH2CO}-[4Pal][Phe(4-COOH)]D[Phe(3-Me)]Y(Carboxymethyl)[Bip]Y(Carboxymethyl)[Orn][dL][Dab][Cha][Val(3-OH)]SC[Dab][Pra]-OH; thioether N-14) was 678 nM.
